Assay results taken from patent EP0908457B1, “3-(1,2-benzisothiazol- and isoxazol-5-Y1)-2,4(1H,3H)-pyrimidinedione or thione and 3-(1,2-benzisothiazol- and isoxazol-5-y1)-4(3H)-pyrimidinone or thione herbicidal agents” (BASF AKTIENGESELLSCHAFT, priority 1997, dated 1999).

Assays:
[1] = test system: Monochoria vaginalis, Presl.; test: Preemergence weed control under flooded paddy conditions, MOOVA (Monochoria); type: in vivo; conditions: preemergence weeds, flooded paddy, rated three to four weeks after treatment
[2] = test system: Oryza sativa, (L.) Tebonnet; test: Rice tolerance to post-transplant applications under flooded paddy conditions (Example 187), ORYSAT (Rice, Tebonnet); conditions: rated three to four weeks after treatment
[3] = test system: Echinochloa oryzoides (Ard.) Fritsch.; test: Preemergence weed control under flooded paddy conditions, ECHORC (Watergrass (Calif.)); type: in vivo; conditions: preemergence weeds, flooded paddy, rated three to four weeks after treatment
[4] = test system: Cyperus serotinus, Rottb.; test: Preemergence weed control under flooded paddy conditions, CYPSE (Flatsedge); type: in vivo; conditions: preemergence weeds, rated three to four weeks after treatment
Sagittaria pygmaea, L. = test: Preemergence weed control under flooded paddy conditions, SAGPY (Arrowhead (Pygmaea)); type: in vivo; conditions: preemergence weeds, flooded paddy, rated three to four weeks after treatment
Cyperus iria = test: Preemergence weed control under flooded paddy conditions, CYPIR (Rice Flatsedge); type: in vivo; conditions: preemergence weeds, flooded paddy, rated three to four weeks after treatment
Further: meaning of each grade not given here.

SMILES | herbicidal effect rating, MOOVA ([1]; Rate 0.0320 kg/ha) | herbicidal effect rating, MOOVA ([1]; Rate 0.0620 kg/ha) | herbicidal effect rating, MOOVA ([1]; Rate 0.1250 kg/ha) | herbicidal effect rating, MOOVA ([1]; Rate 0.2500 kg/ha) | herbicidal effect rating ORYSAT ([2]; Rate 0.0320 kg/ha) | herbicidal effect rating ORYSAT ([2]; Rate 0.0620 kg/ha) | herbicidal effect rating ORYSAT ([2]; Rate 0.1250 kg/ha) | herbicidal effect rating ORYSAT ([2]; Rate 0.2500 kg/ha) | herbicidal effect rating, ECHORC ([3]; Rate 0.0320 kg/ha) | herbicidal effect rating, ECHORC ([3]; Rate 0.0620 kg/ha) | herbicidal effect rating, ECHORC ([3]; Rate 0.1250 kg/ha) | herbicidal effect rating, ECHORC ([3]; Rate 0.2500 kg/ha) | herbicidal effect rating, CYPSE ([4]; Rate 0.0320 kg/ha) | herbicidal effect rating, CYPSE ([4]; Rate 0.0620 kg/ha) | herbicidal effect rating, CYPSE ([4]; Rate 0.1250 kg/ha) | herbicidal effect rating, CYPSE ([4]; Rate 0.2500 kg/ha) | herbicidal effect rating, SAGPY (Sagittaria pygmaea, L.; Rate 0.0320 kg/ha) | herbicidal effect rating, SAGPY (Sagittaria pygmaea, L.; Rate 0.0620 kg/ha) | herbicidal effect rating, SAGPY (Sagittaria pygmaea, L.; Rate 0.1250 kg/ha) | herbicidal effect rating, SAGPY (Sagittaria pygmaea, L.; Rate 0.2500 kg/ha) | further results
Cn1c(C(F)(F)F)cc(=O)n(-c2ccc3snc(-c4ccccc4OCC(=O)O)c3c2)c1=O [Example 312, Acetic acid, {o-{5-[3,6-dihydro-3-methyl-2,6-dioxo-4-(trifluoromethyl)-1(2H)-pyrimidinyl]-1,2-benzisothiazol-3-yl}phenoxy}-] | 4.5 | 6.0 | 9.0 | 9.0 | 5.0 | 6.5 | 7.0 | 7.5 | 6.0 | 6.5 | 9.0 | 9.0 | 0.0 | 3.5 | 4.5 | 6.0 | 0.0 | 2.0 | 5.5 | 6.5 | herbicidal effect rating, CYPIR (Cyperus iria; Rate 0.0320 kg/ha): 4.5; herbicidal effect rating, CYPIR (Cyperus iria; Rate 0.0620 kg/ha): 6.5; herbicidal effect rating, CYPIR (Cyperus iria; Rate 0.1250 kg/ha): 9.0; herbicidal effect rating, CYPIR (Cyperus iria; Rate 0.2500 kg/ha): 9.0
Cc1ccc(OCC(=O)NO)c(-c2nsc3ccc(-n4c(=O)cc(C(F)(F)F)n(C)c4=O)cc23)c1 [Example 313, Acetohydroxamic acid, 2-{{2-{5-[3,6-dihydro-3-methyl-2,6-dioxo-4-(trifluoromethyl)-1(2H)-pyrimidinyl]-1,2-benzisothiazol-3-yl}-p-tolyl}oxy}-] | 0.0 | 9.0 | 9.0 | 9.0 | 0.0 | 1.0 | 3.0 | 4.0 | 4.0 | 5.0 | 6.0 | 9.0 | 0.0 | 0.0 | 0.0 | 2.0 | 0.0 | 0.0 | 0.0 | 3.0 | herbicidal effect rating, CYPIR (Cyperus iria; Rate 0.0320 kg/ha): 0.0; herbicidal effect rating, CYPIR (Cyperus iria; Rate 0.0620 kg/ha): 0.0; herbicidal effect rating, CYPIR (Cyperus iria; Rate 0.1250 kg/ha): 9.0; herbicidal effect rating, CYPIR (Cyperus iria; Rate 0.2500 kg/ha): 9.0
CC(Oc1ccccc1-c1nsc2ccc(-n3c(=O)cc(C(F)(F)F)n(C)c3=O)cc12)C(=O)O (stereo not drawn) [Example 314, Propionic acid, 2-{o-{5-[3,6-dihydro-3-methyl-2,6-dioxo-4-(trifluoromethyl)-1(2H)-pyrimidinyl]-1,2-benzisothiazol-3-yl}phenoxy}-] | 9.0 | 9.0 | 9.0 | 9.0 | 3.0 | 3.0 | 4.0 | 5.0 | 5.0 | 5.0 | 9.0 | 9.0 | 0.0 | 0.0 | 0.0 | 0.0 | 0.0 | 0.0 | 0.0 | 0.0 | herbicidal effect rating, CYPIR (Cyperus iria; Rate 0.0320 kg/ha): 9.0; herbicidal effect rating, CYPIR (Cyperus iria; Rate 0.0620 kg/ha): 9.0; herbicidal effect rating, CYPIR (Cyperus iria; Rate 0.1250 kg/ha): 9.0; herbicidal effect rating, CYPIR (Cyperus iria; Rate 0.2500 kg/ha): 9.0
Cn1c(C(F)(F)F)cc(=O)n(-c2ccc3snc(C(=O)O)c3c2)c1=O [Example 315, 1,2-Benzisothiazole-3-carboxylic acid, 5-[3,6-dihydro-3-methyl-2,6-dioxo-4-(trifluoromethyl)-1(2H)-pyrimidinyl]-] | 9.0 | 9.0 | 9.0 | 9.0 | 0.0 | 0.0 | 0.0 | 2.0 | 0.0 | 0.0 | 0.0 | 3.0 | 0.0 | 0.0 | 3.0 | 3.0 | 0.0 | 0.0 | 3.0 | 4.0 | herbicidal effect rating, CYPIR (Cyperus iria; Rate 0.0320 kg/ha): 0.0; herbicidal effect rating, CYPIR (Cyperus iria; Rate 0.0620 kg/ha): 0.0; herbicidal effect rating, CYPIR (Cyperus iria; Rate 0.1250 kg/ha): 5.0; herbicidal effect rating, CYPIR (Cyperus iria; Rate 0.2500 kg/ha): 9.0
CONC(=O)COc1ccc(C)cc1-c1nsc2ccc(-n3c(=O)cc(C(F)(F)F)n(C)c3=O)cc12 [Example 316, Acetamide, 2-{{2-{5-[3,6-dihydro-3-methyl-2,6-dioxo-4-(trifluoromethyl)-1(2H)-pyrimidinyl]-1,2-benzisothiazol-3-yl}-p-tolyl}oxy}-N-methoxy-] | 8.0 | 9.0 | 9.0 | 9.0 | 4.5 | 4.0 | 4.5 | 4.0 | 5.5 | 9.0 | 9.0 | 9.0 | 1.0 | 4.5 | 4.5 | 0.0 | 0.0 | 3.0 | 1.0 | 3.0 | herbicidal effect rating, CYPIR (Cyperus iria; Rate 0.0320 kg/ha): 8.5; herbicidal effect rating, CYPIR (Cyperus iria; Rate 0.0620 kg/ha): 7.5; herbicidal effect rating, CYPIR (Cyperus iria; Rate 0.1250 kg/ha): 7.5; herbicidal effect rating, CYPIR (Cyperus iria; Rate 0.2500 kg/ha): 6.0
COC(=O)c1nsc2ccc(-n3c(=O)cc(C(F)(F)F)n(C)c3=O)cc12 [Example 318, 1,2-Benzisothiazole-3-carboxylic acid, 5-[3,6-dihydro-3-methyl-2,6-dioxo-4-(trifluoromethyl)-1(2H)-pyrimidinyl]-, methyl ester] | 4.0 | 6.0 | 9.0 | 9.0 | 5.0 | 5.0 | 5.0 | 9.0 | 0.0 | 3.0 | 5.0 | 5.0 | 0.0 | 0.0 | 0.0 | 9.0 | 0.0 | 0.0 | 0.0 | 4.0 | herbicidal effect rating, CYPIR (Cyperus iria; Rate 0.0320 kg/ha): 0.0; herbicidal effect rating, CYPIR (Cyperus iria; Rate 0.0620 kg/ha): 2.0; herbicidal effect rating, CYPIR (Cyperus iria; Rate 0.1250 kg/ha): 5.0; herbicidal effect rating, CYPIR (Cyperus iria; Rate 0.2500 kg/ha): 6.0
